# Experimental data published in US4582934A, “Alpha,alpha-dimethylphenylacetanilide derivatives, process for production thereof, and use thereof as insecticide” (Yashima Chemical Industrial Co., Ltd., priority 1983, dated 1986).
# Read-outs that look alike come from different tables or passages of the source.
# Key:
# Assay type in all cases: in vivo
# [1] = system: Sensitive Plutella xylostella; assay: Indoor test on 3rd-instar larvae of Plutella xylostella, sensitive insects (cabbage leaf dip); conditions: foliar, read-out: LC50 (50% lethal concentration)
# Procedure: (§1) Indoor test on 3rd-instar larvae of Plutella xylostella:
# (§2) A wettable powder prepared as in Formulation Example 2 was diluted to a predetermined concentration. Cabbage leaves were dipped for 10 seconds in the resulting dilution and then air dried. The leaves were put into a polyvinyl chloride cup having a capacity of 90 ml together with 3rd-instar larvae of Plutella xylostella. The cup was left to stand in a constant temperature chamber kept at 25° C., and 72 hours later, the number of dead insects was examined. For each test area, the test was repeated twice, and 20 insects were used in each area. The ratio of the dead insects was calculated, and LC50 (50% lethal concentration) values of the test compounds were determined by the method of Bliss.
# (§3) The sensitive Plutella xylostella insects in the table were those bred through generations at the Laboratory of Yashima Chemical Industrial Co., Ltd. The resistant ones were hunted at Tsumakoi-mura, Gunma-ken, Japan.
# [2] = system: Resistant Plutella xylostella; assay: Indoor test on 3rd-instar larvae of Plutella xylostella, resistant insects (cabbage leaf dip); conditions: foliar, read-out: LC50 (50% lethal concentration)
# Procedure: as §1, §2, §3
# [3] = system: Resistant Plutella xylostella; assay: Field test on Plutella xylostella (cabbage, spray); conditions: larvae per 10 heads of cabbage, not sprayed = 100
# Procedure: Field test on Plutella xylostella:
# On predetermined dates, the number of larvae per 10 heads of cabbage was examined, and the corrected density indices of the test compounds were calculated in accordance with the following equation. [formula]
# [4] = system: Thrips palmi; assay: Test on Thrips palmi (potted eggplants, spray); conditions: eggplants in pots, not sprayed = 100
# Procedure: An emulsifiable emulsion prepared as in Formulation Example 3 was diluted with water to a predetermined concentration. The dilution was sprayed on eggplants which were grown in pots and on which Thrips palmi was parasitic, so that the dilution fully dripped on the plant leaves. The number of dead insects was examined at predetermined dates, and the corrected density indices of the test compounds were calculated. For each area, the test was repeated three times.
compound,measurement,setting,value
"COP(=O)(NC(C)=O)SC (centres unmarked) [Acephate, O,S--dimethyl N--acetylphosphoramidothiolate, reference compound]",LC50,"[1]; Plutella xylostella, 72 h",178 µg/mL
same,LC50,"[2]; Plutella xylostella, 72 h",878 µg/mL
same,Corrected density index After 3 days,[3]; 500 ppm,8
same,Corrected density index After 7 days,[3]; 500 ppm,12
same,Corrected density index After 14 days,[3]; 500 ppm,15
CC(C)(C(=O)Nc1ccc(Cl)cc1)c1ccc(Br)cc1 [compound 15],LC50,"[1]; Plutella xylostella, 72 h",137 µg/mL
same,LC50,"[2]; Plutella xylostella, 72 h",129 µg/mL
CCCN(C(=O)C(C)(C)c1ccc(Cl)cc1)c1ccc(Cl)cc1 [compound 8],LC50,"[1]; Plutella xylostella, 72 h",198 µg/mL
same,LC50,"[2]; Plutella xylostella, 72 h",204 µg/mL
CCN(C(=O)C(C)(C)c1ccc(F)cc1)c1ccc(Cl)cc1 [compound 13],LC50,"[1]; Plutella xylostella, 72 h",74 µg/mL
same,LC50,"[2]; Plutella xylostella, 72 h",73 µg/mL
CCN(C(=O)C(C)(C)c1ccc(Cl)cc1)c1ccc(Cl)cc1 [Compound No. 7],LC50,"[1]; Plutella xylostella, 72 h",51 µg/mL
same,LC50,"[2]; Plutella xylostella, 72 h",53 µg/mL
same,Corrected density index After 3 days,[3]; 250 ppm,4
same,Corrected density index After 7 days,[3]; 250 ppm,0
same,Corrected density index After 14 days,[3]; 250 ppm,0
same,Corrected density index After 1 day,[4]; 250 ppm,16
same,Corrected density index After 3 days,[4]; 250 ppm,9
same,Corrected density index After 7 days,[4]; 250 ppm,13
same,Corrected density index After 1 day,[4]; 500 ppm,10
same,Corrected density index After 3 days,[4]; 500 ppm,2
same,Corrected density index After 7 days,[4]; 500 ppm,3
CC(C)(C(=O)Nc1ccc(C(F)(F)F)cc1)c1ccc(F)cc1 [compound 12],LC50,"[1]; Plutella xylostella, 72 h",95 µg/mL
same,LC50,"[2]; Plutella xylostella, 72 h",110 µg/mL
"CC(C)(C(=O)Nc1ccc(Cl)cc1)c1ccc(Cl)cc1 [compound 2, alpha,alpha-dimethyl-p-chlorophenylaceto-p-chloranilide]",LC50,"[1]; Plutella xylostella, 72 h",101 µg/mL
same,LC50,"[2]; Plutella xylostella, 72 h",110 µg/mL
same,Corrected density index After 3 days,[3]; 250 ppm,10
same,Corrected density index After 7 days,[3]; 250 ppm,5
same,Corrected density index After 14 days,[3]; 250 ppm,2
same,Corrected density index After 1 day,[4]; 250 ppm,16
same,Corrected density index After 3 days,[4]; 250 ppm,14
same,Corrected density index After 7 days,[4]; 250 ppm,14
same,Corrected density index After 1 day,[4]; 500 ppm,20
same,Corrected density index After 3 days,[4]; 500 ppm,10
same,Corrected density index After 7 days,[4]; 500 ppm,12
CC(C)(C(=O)Nc1ccc(Cl)cc1)c1ccc(Cl)cc1Cl [compound 19],LC50,"[1]; Plutella xylostella, 72 h",119 µg/mL
same,LC50,"[2]; Plutella xylostella, 72 h",106 µg/mL
CC(C)(C(=O)Nc1ccc(Cl)cc1)c1ccc(F)cc1 [compound 11],LC50,"[1]; Plutella xylostella, 72 h",107 µg/mL
same,LC50,"[2]; Plutella xylostella, 72 h",111 µg/mL
"CCC(C)c1ccccc1OC(=O)NC (centres unmarked) [BPMC, 2sec. butylphenylN--methyl carbamate, reference compound]",Corrected density index After 1 day,[4]; 250 ppm,7
same,Corrected density index After 3 days,[4]; 250 ppm,35
same,Corrected density index After 7 days,[4]; 250 ppm,57
same,Corrected density index After 1 day,[4]; 500 ppm,2
same,Corrected density index After 3 days,[4]; 500 ppm,15
same,Corrected density index After 7 days,[4]; 500 ppm,45
CC(C)(C(=O)Nc1ccc(F)cc1)c1ccc(Cl)cc1 [compound 1],LC50,"[1]; Plutella xylostella, 72 h",126 µg/mL
same,LC50,"[2]; Plutella xylostella, 72 h",123 µg/mL
CC(C)(C(=O)Nc1ccc(Cl)cc1)c1ccccc1F [compound 16],LC50,"[1]; Plutella xylostella, 72 h",320 µg/mL
same,LC50,"[2]; Plutella xylostella, 72 h",331 µg/mL
"COP(=O)(OC)OC=C(Cl)Cl [DDVP, 2,2-dichlorovinyl dimethyl phosphate, reference compound]",LC50,"[1]; sensitive Plutella xylostella, 3rd-instar larvae, 72 hours, 25° C., wettable powder dilution, method of Bliss",103 µg/mL
same,LC50,"[2]; resistant Plutella xylostella, 3rd-instar larvae, 72 hours, 25° C., wettable powder dilution, method of Bliss",1020 µg/mL
same,Corrected density index After 3 days,[3]; 500 ppm,15
same,Corrected density index After 7 days,[3]; 500 ppm,52
same,Corrected density index After 14 days,[3]; 500 ppm,86
CC(C)(C(=O)Nc1ccc(C#N)cc1)c1ccc(Cl)cc1 [compound 5],LC50,"[1]; Plutella xylostella, 72 h",97 µg/mL
same,LC50,"[2]; Plutella xylostella, 72 h",90 µg/mL
"CCN(C(=O)C(C)(C)c1ccc(Cl)cc1)c1ccc(Br)cc1 [compound 10, alpha,alpha-dimethyl-p-chlorophenylaceto-N-ethyl-p-bromanilide]",LC50,"[1]; Plutella xylostella, 72 h",48 µg/mL
same,LC50,"[2]; Plutella xylostella, 72 h",46 µg/mL
same,Corrected density index After 3 days,[3]; 250 ppm,5
same,Corrected density index After 7 days,[3]; 250 ppm,0
same,Corrected density index After 14 days,[3]; 250 ppm,0
same,Corrected density index After 1 day,[4]; 250 ppm,12
same,Corrected density index After 3 days,[4]; 250 ppm,12
same,Corrected density index After 7 days,[4]; 250 ppm,11
same,Corrected density index After 1 day,[4]; 500 ppm,7
same,Corrected density index After 3 days,[4]; 500 ppm,1
same,Corrected density index After 7 days,[4]; 500 ppm,4
CN(C(=O)C(C)(C)c1ccc(Cl)cc1)c1ccc(Cl)cc1 [compound 6],LC50,"[1]; Plutella xylostella, 72 h",61 µg/mL
same,LC50,"[2]; Plutella xylostella, 72 h",60 µg/mL
CCCCN(C(=O)C(C)(C)c1ccc(Cl)cc1)c1ccc(Cl)cc1 [compound 9],LC50,"[1]; Plutella xylostella, 72 h",372 µg/mL
same,LC50,"[2]; Plutella xylostella, 72 h",365 µg/mL
CCN(C(=O)C(C)(C)c1ccc(F)cc1)c1ccc(Br)cc1 [compound 14],LC50,"[1]; Plutella xylostella, 72 h",88 µg/mL
same,LC50,"[2]; Plutella xylostella, 72 h",93 µg/mL
CC(C)(C(=O)Nc1ccc(C(F)(F)F)cc1)c1ccc(Cl)cc1 [Compound No. 4],LC50,"[1]; Plutella xylostella, 72 h",95 µg/mL
same,LC50,"[2]; Plutella xylostella, 72 h",96 µg/mL
same,Corrected density index After 3 days,[3]; 250 ppm,7
same,Corrected density index After 7 days,[3]; 250 ppm,1
same,Corrected density index After 14 days,[3]; 250 ppm,0
same,Corrected density index After 1 day,[4]; 250 ppm,19
same,Corrected density index After 3 days,[4]; 250 ppm,8
same,Corrected density index After 7 days,[4]; 250 ppm,11
same,Corrected density index After 1 day,[4]; 500 ppm,12
same,Corrected density index After 3 days,[4]; 500 ppm,4
same,Corrected density index After 7 days,[4]; 500 ppm,6
CC(C)(C(=O)Nc1ccc(C(F)(F)F)cc1)c1ccccc1F [compound 17],LC50,"[1]; Plutella xylostella, 72 h",281 µg/mL
same,LC50,"[2]; Plutella xylostella, 72 h",256 µg/mL
CN(C(=O)C(C)(C)c1ccccc1F)c1ccc(Cl)cc1 [compound 18],LC50,"[1]; Plutella xylostella, 72 h",213 µg/mL
same,LC50,"[2]; Plutella xylostella, 72 h",211 µg/mL
CC(C)(C(=O)Nc1ccc(F)cc1)c1ccc(Cl)cc1Cl [compound 20],LC50,"[1]; Plutella xylostella, 72 h",122 µg/mL
same,LC50,"[2]; Plutella xylostella, 72 h",128 µg/mL
CC(C)(C(=O)Nc1ccc(Br)cc1)c1ccc(Cl)cc1 [Compound No. 3],LC50,"[1]; Plutella xylostella, 72 h",57 µg/mL
same,LC50,"[2]; Plutella xylostella, 72 h",51 µg/mL
same,Corrected density index After 3 days,[3]; 250 ppm,7
same,Corrected density index After 7 days,[3]; 250 ppm,2
same,Corrected density index After 14 days,[3]; 250 ppm,3
same,Corrected density index After 1 day,[4]; 250 ppm,16
same,Corrected density index After 3 days,[4]; 250 ppm,8
same,Corrected density index After 7 days,[4]; 250 ppm,14
same,Corrected density index After 1 day,[4]; 500 ppm,9
same,Corrected density index After 3 days,[4]; 500 ppm,3
same,Corrected density index After 7 days,[4]; 500 ppm,3
